Data reported in patent US20260306463A1, “SIK INHIBITORS TO TREAT CHRONIC KIDNEY DISEASE” (The General Hospital Corporation, priority 2023, published 2026).
“Also recorded” adds a separate entry of the source.

Legend:
human kidney organoids [1] = test: P21, gammaH2AX and LTL immunostaining in cisplatin-injured human kidney organoids; format: cell-based; details: for gammaH2AX induction: cisplatin; for gammaH2AX induction / P21 expression: concurrent SK-124 (FIG. 9); for LTL-positive proximal tubule cells / P21 / gammaH2AX: dose response, five cisplatin cycles (FIG. 11); for P21 expression: indicated number of cisplatin cycles
Method: FIG. 9. SK-124 treatment protects from cisplatin-induced P21 induction in human kidney organoids. Organoids were treated with the indicated number of cisplatin cycles in the presence of DMSO vehicle (top) or SK-124 (bottom). Organoids were then processed for P21 immunofluorescent microscopy.
FIG. 11. SK-124 protects human kidney organoids from cisplatin injury in a dose-dependent manner. Organoids were treated with five cisplatin cycles in the presence of the indicated doses of SK-124. Subsequently, organoids were immunostained to reveal cellular composition and injury markers P21 (top panels) and gammaH2AX (bottom panels). […] Proximal tubule cells are labeled with LTL staining and are reduced by cisplatin treatment and restored by SK-124 co-treatment.
(§1) For cisplatin induced injury, day 49 organoids were treated with 5 μM cisplatin in basal media after full media change. After 24 hours, full media exchanges were performed. This 24-hour treatment was performed twice a week, on day 52-53, day 56-57, day 59-60, and day 63-64 as well, for a total of five cisplatin treatments. Samples were obtained for RT-qPCR and immunostaining immediately following each 24-hour treatment with cisplatin, and from corresponding controls.
Following the treatment, the organoids were collected and immediately fixed in 4% PFA in PBS for 1 hour at room temperature, submerged in 30% sucrose overnight at 4° C., then embedded in O.C.T. Compound (4585. Fisher HealthCare). Subsequently, […] frozen sections were prepared via cryo-sectioning by a cryostat. After 1 hr blocking at room temperature, the sections were treated overnight at 4° C. with primary antibodies in antibody dilution buffer (ADB) with biotinylated LTL (1:200, B-1325, Vector), rat anti-CDH1 (1:500, ab11512, Abcam), goat anti-PODXL (1:500, AF1658, R&D Systems), as well as the antibody of interest, either mouse anti-p21 (1:200, NBP2-43697, Novus Biologicals), or rabbit anti-γH2AX (1:100, 2577, Cell Signaling) antibodies. For the optimum labeling of LTL by biotin/streptavidin interaction, the Streptavidin/Biotin Blocking Kit (SP-2002, Vector Laboratories) was applied according to the manufacturer's instructions. After washing, the samples were stained for 1 hour at RT with the nuclear dye-SYTOX Blue (1:500. S 11348, Invitrogen) and the corresponding secondary antibodies in ADB such as streptavidin-AF750 (1:500, S21384, Invitrogen), donkey anti-rat IgG-AF594 (1:500, A21209, Invitrogen), donkey anti-goat IgG-AF555 (1:500, A21432, Invitrogen), and donkey anti-rabbit IgG-AF488 (1:500, A21206, Invitrogen) for γH2AX or donkey anti-mouse IgG-AF488 (1:500, A21202, Invitrogen) for p21 antibodies as well as mouse anti-Meisl/⅔ (1:200, sc-101850, SantaCruz) conjugated antibody, and slides were mounted with Vectashield antifade mounting medium (H1000, Vector Laboratories).
Finally, the images were captured by the STELLARIS 8 confocal microscope (Leica Microsystems) using 25× water immersion objective lens. The mean diameters of the organoids were measured on the Leica Application Suite X (LAS X) software platform.

human kidney organoids [2] = test: RT-qPCR in cisplatin-injured human kidney organoids; format: cell-based; details: for proximal tubule marker genes / fibrosis/injury marker genes: panel; for fibrosis/injury marker genes: five cisplatin cycles (FIG. 12B)
Excerpt: FIG. 8. SK-124 treatment restores gene expression changes in cisplatin-injured human kidney organoids. RNA was isolated from organoids treated as in FIG. 7 for RT-qPCR for the indicated genes. Injury markers (Pai-1, Fibronectin-1, and Co18a1) are induced by cisplatin treatment and reduced by SK-124. In contrast, the proximal tubule marker Lrp2 is reduced by cisplatin treatment and rescued by SK-124.
FIGS. 10A-10B. SK-124 treatment restores gene expression changes in cisplatin-injured human kidney organoids. RNA was isolated from organoids treated as in FIG. 9 with the indicated number of cisplatin cycles plus DMSO control (“Cis”) or SK-124 (10 μM; “Cis+SK”) for RT-qPCR. […] (B) Injury/fibrosis markers (FN-1, Co/8a1, and Pai-1) were induced by cisplatin and suppressed by SK-124.
FIGS. 12A-12B. SK-124 protects human kidney organoids from cisplatin injury in a dose-dependent manner. RNA was isolated from organoids treated as in FIG. 11 for RT-qPCR. (A) Proximal tubule marker genes are reduced by cisplatin and increased by SK-124. (B) Fibrosis/injury marker genes are induced by cisplatin and reduced by SK-124.
BJFF human induced pluripotent stem cells (hPSCs) were maintained on Geltrexcoated (Thermo Fisher Scientific) plates using StemFit Basic04 Complete (Ajinomoto Co. Inc.) as previously reported(25). The cells were passaged weekly using Accutase (STEMCELL Technologies) for dissociation and Y27632 (Tocris) for adhesion. Directed differentiation of hPSCs into kidney organoids has been published elsewhere (29). Briefly, hPSCs were differentiated into metanephric mesenchyme cells on day 8 by a three-step directed differentiation protocol. Metanephric mesenchyme was transferred into suspension culture in 96-well ultralow adhesion plates (Coming) and further differentiated into kidney organoids, as previously reported(25). Quality control measures of SIX2 immunostaining on day 8 of differentiation and CDH1, LTL, PODXL, CD146, MEIS1/2/3, and SYTOX-blue staining on day 21 were performed on all batches of kidney organoids to limit batch-to-batch heterogeneity. Kidney organoids were maintained in 200 μl of basal media consisting of Advanced RPMI (Thermo Fisher Scientific) and GlutaMAX (Thermo Fisher Scientific) in 96-well plates, as previously reported. Media changes were conducted three times weekly with removal of 90 [l and addition of 100 μl of fresh basal media.
as §1
cDNA was prepared using Primescript RT kit (Takara Inc), with 750 ng RNA per reaction. RT-qPCR was performed by using PerfeCa® SYBR® Green FAstMix® ROX (Quanta bio) in the StepOnePlus™ Real-time PCR System (Applied Biosystems). Hmbs was used as a control housekeeping gene for mouse samples, and B-Actin was used for organoids, relative expression was calculated (2^-deltaCT method) and compared to the mean of control group if necessary. Primers used for RT-qPCR are listed in Table 2 (mouse primers) and Table 3 (human primers).

[3] = 5 cisplatin treatments (FIG. 8)
[4] = 5 cisplatin treatments (FIG. 8), Co18a1 [sic]
[5] = dose response, five cisplatin cycles (FIG. 12)
[6] = dose response, five cisplatin cycles (FIG. 12A)
[7] = time course, indicated number of cisplatin cycles, SK-124 10 μM (FIG. 10A)
[8] = time course, indicated number of cisplatin cycles, SK-124 10 μM (FIG. 10B)

Compound	gammaH2AX induction (human kidney organoids [1])	LTL-positive proximal tubule cells (human kidney organoids [1])	P21 (human kidney organoids [1])	gammaH2AX (human kidney organoids [1])	P21 expression (human kidney organoids [1])	Fibronectin-1 expression (human kidney organoids [2]; [3])	Lrp2 expression (human kidney organoids [2]; [3])	Pai-1 expression (human kidney organoids [2]; [3])	Col8a1 expression (human kidney organoids [2]; [4])	Col8al expression (human kidney organoids [2]; [5])	Fibronectin-1 expression (human kidney organoids [2]; [5])	Pai-1 expression (human kidney organoids [2]; [5])	Lrp2 expression (human kidney organoids [2]; [6])	Pth1r expression (human kidney organoids [2]; [6])	proximal tubule marker genes (human kidney organoids [2]; [6])	fibrosis/injury marker genes (human kidney organoids [2]; dose response)	Lrp2 expression (human kidney organoids [2]; [7])	Slc17a2 expression (human kidney organoids [2]; [7])	Col8a1 expression (human kidney organoids [2]; [8])	Fibronectin-1 (FN-1) expression (human kidney organoids [2]; [8])	further results
CCc1nnc(-c2c(OC)cc(-c3cnc4cc(-c5cnn(C)c5)ccn34)cc2OC)o1 [SK-124, 2-[2,6-Dimethoxy-4-[7-(1-methylpyrazol-4-yl)imidazo[1,2-a]pyridin-3-yl]phenyl]-5-ethyl-1,3,4-oxadiazole]	markedly reduced	restored; also recorded: blocked by SK-124 treatment in a dose-dependent manner	reduced by SK-124 co-treatment in a dose-dependent manner; also recorded: blocked by SK-124 treatment in a dose-dependent manner	reduced by SK-124 co-treatment in a dose-dependent manner	markedly reduced	reduced; also recorded: blocked	rescued; also recorded: preserved expression	reduced; also recorded: blocked	reduced; also recorded: blocked	suppressed	suppressed	suppressed	dose-dependent restoration	dose-dependent restoration	increased	reduced	restored; also recorded: improved expression	restored; also recorded: improved expression	suppressed expression	suppressed expression	doses at which therapeutic effects are noted in the injury model (human kidney organoids [2]; dose response, cisplatin-injured organoids): below 1 μM; Pai-1 expression (human kidney organoids [2]; [8]): suppressed expression
N.N.[Cl][Pt][Cl] [cisplatin, reference compound]	robust P21 (top) and gammaH2AX (bottom) induction	reduced; also recorded: loss of LTL-positive proximal tubule cells	robust cisplatin-induced P21 induction	induced	induces P21 expression; also recorded: robust P21 (top) and gammaH2AX (bottom) induction	induced	reduced	induced	induced	induction	induction	induction	suppression	suppression	reduced	induced	progressively reduced	progressively reduced	induced	induced	Pai-1 expression (human kidney organoids [2]; [8]): induced
